Results on 4 compounds are retold here after patent publication US20070048215A1, “Chemical compound and assay” (priority 2003, published 2007).

The target in data set [1] is T1, membranes from hERG-transfected HEK cells (hERG channel) (Homo sapiens, UniProt Q12809).
T1 construct: expressed in transfected cells; host or cells: HEK (human embryonic kidney) cells, membrane preparation
The data set is described as follows: Binding of the radioligand to membranes from hERG-transfected HEK cells (Kd, Bmax). The note with it: mean±SEM, n=3. On the procedure: The batch of radiolabel used in these studies has a specific activity of 2941.5 GBq/mmol (79.5 Ci/mmol) and a concentration of 20 μM. The stock radiolabel is diluted 2000-fold to 10 nM and 20 μL added per well to a final assay volume of 200 μL to give a final radioligand concentration of 1 nM.
A general note: hERG is a cardiac potassium channel; its block is linked to QT prolongation.

The target of data set [2] is T2, hERG-transfected HEK membranes (hERG channel) (Homo sapiens, UniProt Q12809). In words: biochemical.
T2 sequence (Q12809 whole entry): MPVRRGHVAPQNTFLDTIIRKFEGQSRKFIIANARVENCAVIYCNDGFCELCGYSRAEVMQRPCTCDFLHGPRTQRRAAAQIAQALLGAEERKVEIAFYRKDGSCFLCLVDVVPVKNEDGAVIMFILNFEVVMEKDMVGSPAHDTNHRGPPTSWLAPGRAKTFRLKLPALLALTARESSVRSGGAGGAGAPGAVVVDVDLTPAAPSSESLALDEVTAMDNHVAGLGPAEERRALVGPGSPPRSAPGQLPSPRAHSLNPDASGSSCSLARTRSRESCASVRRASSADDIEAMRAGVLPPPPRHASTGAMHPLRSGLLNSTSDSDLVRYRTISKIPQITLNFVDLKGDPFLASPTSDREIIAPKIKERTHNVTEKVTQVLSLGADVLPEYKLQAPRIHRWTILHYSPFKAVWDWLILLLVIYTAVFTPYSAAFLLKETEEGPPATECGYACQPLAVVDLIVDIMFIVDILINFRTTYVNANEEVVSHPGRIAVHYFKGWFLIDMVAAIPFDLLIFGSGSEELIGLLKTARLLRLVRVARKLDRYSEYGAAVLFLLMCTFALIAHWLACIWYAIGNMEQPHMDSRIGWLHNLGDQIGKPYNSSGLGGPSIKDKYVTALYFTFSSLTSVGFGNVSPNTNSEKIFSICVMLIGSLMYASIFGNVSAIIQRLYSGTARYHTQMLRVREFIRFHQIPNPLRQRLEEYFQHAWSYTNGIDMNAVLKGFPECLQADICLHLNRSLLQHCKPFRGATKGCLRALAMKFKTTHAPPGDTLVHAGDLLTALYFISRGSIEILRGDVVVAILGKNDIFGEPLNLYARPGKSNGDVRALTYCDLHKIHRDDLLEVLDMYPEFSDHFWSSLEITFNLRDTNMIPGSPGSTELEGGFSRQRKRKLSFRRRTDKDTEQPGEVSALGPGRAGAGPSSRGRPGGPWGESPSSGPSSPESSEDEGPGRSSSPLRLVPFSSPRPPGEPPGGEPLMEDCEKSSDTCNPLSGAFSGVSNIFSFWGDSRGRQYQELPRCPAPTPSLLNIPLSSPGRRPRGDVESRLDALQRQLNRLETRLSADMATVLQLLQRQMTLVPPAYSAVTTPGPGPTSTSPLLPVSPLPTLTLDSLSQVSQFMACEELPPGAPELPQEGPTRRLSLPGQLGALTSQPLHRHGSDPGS
Description: Protocol for HERG Binding Assay
(§1) 96-well polypropylene plates (Costar C3600)
GF/B Plate Coating Solution
0.3% (v/v) Polyethylenimine
(§2) GF/B filter plates are pre-soaked in coating solution for a minimum of 20 minutes before harvesting.
(§3) Membranes for use in the assay are prepared as follows:
(§4) The final pellet is prepared in serum-free medium and the packed cell volume (pcv) measured.
(§5) The cells are allowed to swell for a couple of minutes on ice then lysed using a Polytron tissue homogeniser set to 22,000 rpm. The cell suspension is held on ice and the Polytron is allowed to build up to speed, then turned off and allowed to cool for 30 seconds before repeating. Normally 3 bursts should be sufficient to completely lyse the cells. A sample is checked microscopically to ensure complete lysis and the process repeated if necessary.
(§6) The lysed membrane solution is carefully overlaid over the 41% cushion. Any debris that may be stuck to the sides is washed out of the Polytron tube with buffer. The ultra centrifuge tube is topped up with cold buffer to completely fill the tube (this prevents the tube from collapsing during centrifugation). Centrifugation is carried out at 28,000 rpm for 1 hour @ 4° C. using a SW-28 swing-out rotor with a brake to 800 rpm.
(§7) Membranes are seen as a white band at sucrose/buffer interphase. The top layer of the buffer is discarded and then all the membrane band is harvested with as little sucrose as possible and added to a fresh centrifuge tube. This is diluted and mixed well with at least 3 volumes of ice cold buffer containing protease inhibitor. Centrifugation is carried out at 23,000 rpm at 4° C. for 20 minutes with a break to zero.
(§8) The supernatant is discarded and the pellet resuspended in the assay buffer+protease inhibitors on ice at 1×10^8 cell equivalents/ml. This preparation is then aliquotted and frozen to −80° C. or lower. […]
(§9) 20 μL of 10 nM 3,7-Bis[2-(4-nitro[3,5-^3H]phenyl)ethyl]-3,7-diazabicyclo[3.3.1]nonane is added to a dry filter plate to determine the total radioactivity added to assay wells.
Data set [3] deals with T2, hERG-transfected HEK membranes (hERG channel).
Description: Protocol for HERG Binding Assay
as §1
GF/B Plate Coating Solution
0.3% (v/v) Polyethylenimine
as §2, §3, §4, §5, §6, §7, §8, §9
Data set [4] shares this target. The note with it: published data of Finlayson et al.; cited from earlier work.
Data set [5] relates to cardiac rapidly activating delayed rectifier K^+ current. The note with it: source of data: Chadwick 1993; G.Pig; cited from earlier work.

T1 sequence (Q12809 whole entry): as above

As a reminder, the Kd is a measure of binding affinity in units of concentration. Lower therefore signals higher affinity. `O=[N+]([O-])c1ccc(CCN2CC3CC(C2)CN(CCc2ccc([N+](=O)[O-])cc2)C3)cc1` [3,7-Bis[2-(4-nitro[3,5-^3H]phenyl)ethyl]-3,7-diazabicyclo[3.3.1]nonane] displayed a Kd in data set [1] of 0.91 ± 0.01 nM.

For the compound `[3H]c1cc(CCN2CC3CC(C2)CN(CCc2cc([3H])c([N+](=O)[O-])c([3H])c2)C3)cc([3H])c1[N+](=O)[O-]` [3,7-Bis[2-(4-nitro[3,5-^3H]phenyl)ethyl]-3,7-diazabicyclo[3.3.1]nonane], the Bmax in data set [1] is 23.1±0.4 pmol/mg protein. What is called IC50 is the midpoint of a concentration-inhibition curve. On to `O=[N+]([O-])c1ccc(CCN2CC3CC(C2)CN(CCc2ccc([N+](=O)[O-])cc2)C3)cc1` [3,7-Bis[2-(4-nitrophenyl)ethyl]-3,7-diazabicyclo[3.3.1]nonane], for which the IC50 in data set [2] was 3.16 nM. `CC(C)NC[C@@H](O)c1ccc(NS(C)(=O)=O)cc1` [d-Sotalol]: in data set [3], the “pIC50, 3,7-Bis[2-(4-nitro[3,5-^3H]phenyl)ethyl]-3,7-diazabicyclo[3.3.1]nonane competition binding” value came out at 4.6. Moreover, in data set [4], the “pIC50, [^3H]-Dofetlide competition binding” value is 3.9. For the same compound, the “Electrophysiology pIC50” value in data set [5] is given as 4.1.
